Test [1] deals with thapsigargin-induced IL-2 production in human whole blood.
Test [2] deals with thapsigargin-induced IFN-g production in human whole blood. The format is cell-based.
[3] abbreviates: read-out: Analogue Activity (IC50) WB/IL-2.
The mark [4] stands for this setting: read-out: Analogue Activity (IC50) WB/IFNg.

Like-named read-outs stand apart in the source and are kept apart here. Bridge positions count the residues as written; N and C are the ends. Square brackets hold non-standard residues; d marks the D form. Peptide text beside a SMILES is read from it. 1Nal = N[C@@H](Cc1cccc2ccccc12)C(=O)O

This note sets out measurements from patent US7820623B2 (priority 2006, dated 2010).

With `CC[C@H](C)[C@@H]1NC(=O)[C@H](Cc2cccc3ccccc23)NC(=O)[C@@H](NC(=O)[C@H](CCCCN)NC(=O)[C@@H](NC(=O)[C@H](CC(N)=O)NC(=O)[C@@H](NC(=O)[C@@H](NC(=O)[C@@H](NC(=O)CN)C(C)C)[C@@H](C)CC)[C@@H](C)CC)C(C)C)CSSC[C@@H]2NC(=O)[C@H](CCCCN)NC(=O)CNC(=O)[C@H](Cc3ccccc3)NC(=O)[C@H](CCCNC(=N)N)NC(=O)[C@H](CCSC)NC(=O)CNC(=O)[C@H](C)NC(=O)[C@H](CCCCN)NC(=O)[C@H](CCCCN)NC(=O)[C@@H]3CSSC[C@@H](C(=O)N[C@H](C(=O)N4CCC[C@H]4C(=O)N[C@@H](CCCCN)C(=O)O)[C@@H](C)O)NC(=O)[C@H](Cc4c[nH]cn4)NC(=O)[C@H](CSSC[C@H](NC(=O)[C@H](CCC(N)=O)NC(=O)[C@H](CCCNC(=N)N)NC(=O)[C@H](CO)NC1=O)C(=O)N[C@@H](CC(C)C)C(=O)N[C@@H](CCC(=O)O)C(=O)N1CCC[C@H]1C(=O)N3)NC(=O)[C@H](CCCCN)NC(=O)CNC(=O)[C@H](CC(N)=O)NC(=O)[C@H](CCSC)NC2=O` [K9Nal] (H-GVIINVKC[1Nal]ISRQCLEPCKKAGMRFGKCMNGKCHCTPK-OH; disulfide 8-28, 14-33, 18-35), the IC50 came out at 1.07 nM in test [1] (setting [3]) and 1.22 nM in test [2] (setting [4]).

As for `CC[C@H](C)[C@@H]1NC(=O)[C@H](CCCCN)NC(=O)[C@@H](NC(=O)[C@H](CCCCN)NC(=O)[C@H](Cc2cccc3ccccc23)NC(=O)[C@H](CC(N)=O)NC(=O)[C@@H](NC(=O)[C@@H](NC(=O)[C@@H](NC(=O)CN)C(C)C)[C@@H](C)CC)[C@@H](C)CC)CSSC[C@@H]2NC(=O)[C@H](CCCCN)NC(=O)CNC(=O)[C@H](Cc3ccccc3)NC(=O)[C@H](CCCNC(=N)N)NC(=O)[C@H](CCSC)NC(=O)CNC(=O)[C@H](C)NC(=O)[C@H](CCCCN)NC(=O)[C@H](CCCCN)NC(=O)[C@@H]3CSSC[C@@H](C(=O)N[C@H](C(=O)N4CCC[C@H]4C(=O)N[C@@H](CCCCN)C(=O)O)[C@@H](C)O)NC(=O)[C@H](Cc4c[nH]cn4)NC(=O)[C@H](CSSC[C@H](NC(=O)[C@H](CCC(N)=O)NC(=O)[C@H](CCCNC(=N)N)NC(=O)[C@H](CO)NC1=O)C(=O)N[C@@H](CC(C)C)C(=O)N[C@@H](CCC(=O)O)C(=O)N1CCC[C@H]1C(=O)N3)NC(=O)[C@H](CCCCN)NC(=O)CNC(=O)[C@H](CC(N)=O)NC(=O)[C@H](CCSC)NC2=O` [V6Nal] (H-GVIIN[1Nal]KCKISRQCLEPCKKAGMRFGKCMNGKCHCTPK-OH; disulfide 8-28, 14-33, 18-35), the figures for the IC50 in test [1] (setting [3]) and in test [2] (setting [4]) were 1.78 nM and 2.46 nM, respectively.

Consider “GVIINVKCKISRACLEPCKKAGMRFGKCMNGKCHCTPK [Ala-13 (SEQ ID No: 1411)]”, for which the IC50 is 0.148 nM in test [1] (read-out: Average IC50 IL-2) and 0.133 nM in test [2] (read-out: Average IC50 IFNg).

`CC[C@H](C)[C@@H]1NC(=O)[C@H](CCCCN)NC(=O)[C@@H](NC(=O)[C@H](CCCCN)NC(=O)[C@H](C)NC(=O)[C@H](CC(N)=O)NC(=O)[C@@H](NC(=O)[C@@H](NC(=O)[C@@H](NC(=O)CN)C(C)C)[C@@H](C)CC)[C@@H](C)CC)CSSC[C@@H]2NC(=O)[C@H](CCCCN)NC(=O)CNC(=O)[C@H](Cc3ccccc3)NC(=O)[C@H](CCCNC(=N)N)NC(=O)[C@H](CCSC)NC(=O)CNC(=O)[C@H](C)NC(=O)[C@H](CCCCN)NC(=O)[C@H](CCCCN)NC(=O)[C@@H]3CSSC[C@@H](C(=O)N[C@H](C(=O)N4CCC[C@H]4C(=O)N[C@@H](CCCCN)C(=O)O)[C@@H](C)O)NC(=O)[C@H](Cc4c[nH]cn4)NC(=O)[C@H](CSSC[C@H](NC(=O)[C@H](CCC(N)=O)NC(=O)[C@H](CCCNC(=N)N)NC(=O)[C@H](CO)NC1=O)C(=O)N[C@@H](CC(C)C)C(=O)N[C@@H](CCC(=O)O)C(=O)N1CCC[C@H]1C(=O)N3)NC(=O)[C@H](CCCCN)NC(=O)CNC(=O)[C@H](CC(N)=O)NC(=O)[C@H](CCSC)NC2=O` [V6A] (H-GVIINAKCKISRQCLEPCKKAGMRFGKCMNGKCHCTPK-OH; disulfide 8-28, 14-33, 18-35): the IC50 amounted to 0.0733 nM in test [1] (setting [3]) and 0.0805 nM in test [2] (setting [4]).

Regarding `CC[C@H](C)[C@@H]1NC(=O)[C@H](CCCCN)NC(=O)[C@@H](NC(=O)[C@H](CCCCN)NC(=O)[C@@H](NC(=O)[C@H](CC(N)=O)NC(=O)[C@@H](NC(=O)[C@@H](NC(=O)[C@@H](NC(=O)CN)C(C)C)[C@@H](C)CC)[C@@H](C)CC)C(C)C)CSSC[C@@H]2NC(=O)[C@H](CCCCN)NC(=O)CNC(=O)[C@H](Cc3ccccc3)NC(=O)[C@H](CCCNC(=N)N)NC(=O)[C@H](CCSC)NC(=O)[C@H](Cc3cccc4ccccc34)NC(=O)[C@H](C)NC(=O)[C@H](CCCCN)NC(=O)[C@H](CCCCN)NC(=O)[C@@H]3CSSC[C@@H](C(=O)N[C@H](C(=O)N4CCC[C@H]4C(=O)N[C@@H](CCCCN)C(=O)O)[C@@H](C)O)NC(=O)[C@H](Cc4c[nH]cn4)NC(=O)[C@H](CSSC[C@H](NC(=O)[C@H](CCC(N)=O)NC(=O)[C@H](CCCNC(=N)N)NC(=O)[C@H](CO)NC1=O)C(=O)N[C@@H](CC(C)C)C(=O)N[C@@H](CCC(=O)O)C(=O)N1CCC[C@H]1C(=O)N3)NC(=O)[C@H](CCCCN)NC(=O)CNC(=O)[C@H](CC(N)=O)NC(=O)[C@H](CCSC)NC2=O` [G22Nal] (H-GVIINVKCKISRQCLEPCKKA[1Nal]MRFGKCMNGKCHCTPK-OH; disulfide 8-28, 14-33, 18-35), the IC50 in test [1] (setting [3]) worked out at 10.3 nM; in test [2] (setting [4]) it was 10.6 nM.

“E16K, K20D, des36-38 (GVIINVKCKISRQCLKPCKDAGMRFGKCMNGKCHC)”: the IC50 in test [1] (read-out: WB/IL-2 (IC50)) was 3.94 nM; in test [2] (read-out: WB/IFNg (IC50)), 6.99 nM.

Take GVIINVKCKISPQCLKPCKDAGIRFGKCINGKCACTPK: the IC50 in test [1] (read-out: Average IC50 IL-2) amounted to 0.514 nM; in test [2] (read-out: Average IC50 IFNg), 0.513 nM.

Regarding `CC[C@H](C)[C@@H]1NC(=O)[C@H](CCCCN)NC(=O)[C@@H](NC(=O)[C@H](CCCCN)NC(=O)[C@@H](NC(=O)[C@H](CC(N)=O)NC(=O)[C@@H](NC(=O)[C@@H](NC(=O)[C@@H](NC(=O)CN)C(C)C)[C@@H](C)CC)[C@@H](C)CC)C(C)C)CSSC[C@@H]2NC(=O)[C@H](CCCCN)NC(=O)CNC(=O)[C@H](CCCNC(=N)N)NC(=O)[C@H](CCCNC(=N)N)NC(=O)[C@H](CCSC)NC(=O)CNC(=O)[C@H](C)NC(=O)[C@H](CCCCN)NC(=O)[C@H](CCCCN)NC(=O)[C@@H]3CSSC[C@@H](C(=O)N[C@H](C(=O)N4CCC[C@H]4C(=O)N[C@@H](CCCCN)C(=O)O)[C@@H](C)O)NC(=O)[C@H](Cc4c[nH]cn4)NC(=O)[C@H](CSSC[C@H](NC(=O)[C@H](CCC(N)=O)NC(=O)[C@H](CCCNC(=N)N)NC(=O)[C@H](CO)NC1=O)C(=O)N[C@@H](CC(C)C)C(=O)N[C@@H](CCC(=O)O)C(=O)N1CCC[C@H]1C(=O)N3)NC(=O)[C@H](CCCCN)NC(=O)CNC(=O)[C@H](CC(N)=O)NC(=O)[C@H](CCSC)NC2=O` [F25R] (H-GVIINVKCKISRQCLEPCKKAGMRRGKCMNGKCHCTPK-OH; disulfide 8-28, 14-33, 18-35), the IC50 was 25 nM in test [1] (setting [3]) and 31 nM in test [2] (setting [4]).

As to `CC[C@H](C)[C@@H]1NC(=O)[C@H](CCCCN)NC(=O)[C@@H](NC(=O)[C@H](CCCCN)NC(=O)[C@@H](NC(=O)[C@H](CC(N)=O)NC(=O)[C@@H](NC(=O)[C@@H](NC(=O)[C@@H](NC(=O)CN)C(C)C)[C@@H](C)CC)[C@@H](C)CC)C(C)C)CSSC[C@@H]2NC(=O)[C@H](CCCCN)NC(=O)CNC(=O)[C@H](Cc3ccccc3)NC(=O)[C@H](CCCNC(=N)N)NC(=O)[C@H](CCSC)NC(=O)CNC(=O)[C@H](CCC(=O)O)NC(=O)[C@H](CCCCN)NC(=O)[C@H](CCCCN)NC(=O)[C@@H]3CSSC[C@@H](C(=O)N[C@H](C(=O)N4CCC[C@H]4C(=O)N[C@@H](CCCCN)C(=O)O)[C@@H](C)O)NC(=O)[C@H](Cc4c[nH]cn4)NC(=O)[C@H](CSSC[C@H](NC(=O)[C@H](CCC(N)=O)NC(=O)[C@H](CCCNC(=N)N)NC(=O)[C@H](CO)NC1=O)C(=O)N[C@@H](CC(C)C)C(=O)N[C@@H](CCC(=O)O)C(=O)N1CCC[C@H]1C(=O)N3)NC(=O)[C@H](CCCCN)NC(=O)CNC(=O)[C@H](CC(N)=O)NC(=O)[C@H](CCSC)NC2=O` [A21E] (H-GVIINVKCKISRQCLEPCKKEGMRFGKCMNGKCHCTPK-OH; disulfide 8-28, 14-33, 18-35), the IC50 is 0.117 nM in test [1] (setting [3]) and 0.138 nM in test [2] (setting [4]).

For the compound `CC[C@H](C)[C@@H]1NC(=O)[C@H](CCC(=O)O)NC(=O)[C@@H](NC(=O)[C@H](CCCCN)NC(=O)[C@@H](NC(=O)[C@H](CC(N)=O)NC(=O)[C@@H](NC(=O)[C@@H](NC(=O)[C@@H](NC(=O)CN)C(C)C)[C@@H](C)CC)[C@@H](C)CC)C(C)C)CSSC[C@@H]2NC(=O)[C@H](CCCCN)NC(=O)CNC(=O)[C@H](Cc3ccccc3)NC(=O)[C@H](CCCNC(=N)N)NC(=O)[C@H](CCSC)NC(=O)CNC(=O)[C@H](C)NC(=O)[C@H](CCCCN)NC(=O)[C@H](CCCCN)NC(=O)[C@@H]3CSSC[C@@H](C(=O)N[C@H](C(=O)N4CCC[C@H]4C(=O)N[C@@H](CCCCN)C(=O)O)[C@@H](C)O)NC(=O)[C@H](Cc4c[nH]cn4)NC(=O)[C@H](CSSC[C@H](NC(=O)[C@H](CCC(N)=O)NC(=O)[C@H](CCCNC(=N)N)NC(=O)[C@H](CO)NC1=O)C(=O)N[C@@H](CC(C)C)C(=O)N[C@@H](CCC(=O)O)C(=O)N1CCC[C@H]1C(=O)N3)NC(=O)[C@H](CCCCN)NC(=O)CNC(=O)[C@H](CC(N)=O)NC(=O)[C@H](CCSC)NC2=O` [K9E] (H-GVIINVKCEISRQCLEPCKKAGMRFGKCMNGKCHCTPK-OH; disulfide 8-28, 14-33, 18-35), the figures for the IC50 in test [1] (setting [3]) and in test [2] (setting [4]) were 0.179 nM and 0.171 nM, respectively.
